The source of these data is US20240018105A1, “TROPOLONE DERIVATIVES AND TAUTOMERS THEREOF FOR IRON REGULATION IN ANIMALS” (Kinesid Therapeutics, Inc., priority 2019, published 2024).

The nature of the first assay: Ligand facilitated Fe(III) efflux from liposomes. Particulars: 10 uM ligand concentration; Table 1. Here is the method: Assay 1: Ligand Facilitated Fe(III) Efflux from Liposomes Preparation of POPC (1-palmitoyl-2-oleoyl-sn-glycero-3-phosphocholine): Cholesterol Liposomes:
A 1M buffer solution of MES and Tris was prepared by dissolving 121.14 grams of Tris base and 213.25 grams of MES hydrate in 500 mL of MilliQ water and adjusted to pH7.0 using an […] HCl solution before bringing the total volume of the solution to 1 L. A 500 mM solution of FeCl3 was prepared by dissolving 0.811 grams of anhydrous FeCl3 in 10 mL of a 0.1M H2SO4 aqueous solution. Inside buffer is prepared in a 50 mL falcon tube, which was added with 25 mL of MilliQ water, 1.61 g of sodium citrate, 1.5 mL of the above FeCl3 solution, and 2.5 mL of the 1M MES/Tris HCl buffer (pH=7.0), and finally additional MilliQ H2O to bring to a 50 mL final volume.
Lipid solution is prepared by dissolving 206.9 mg of POPC (1-palmitoyl-2-oleoyl-sn-glycero-3-phosphocholine) and 8.6 mg of cholesterol in 10 mL of ethanol.
The lipids solution and the inside buffer solution are independently loaded into 10 mL luer lock syringes for loading into a virgin cartridge on a Precision Nanosystems NanoAssembler to prepare unilamaller liposomes with the following parameters: 7.5 mL total volume, 1.5:1 mixing ratio of inside buffer:lipids solution, 8 mL/min flow rate, ambient temperature, 0.35 mL start waste, and 0.05 mL of end waste. 7.5 mL of liposomes is harvested for purification on a 6-inch long, 1-inch diameter Sephadex G-50 column wetted in 600 mM sodium ascorbate and 50 mM MES/Tris HCl pH 7.0 buffer. This buffer also serves as the column running buffer. The crude liposome solution is carefully loaded with minimal volume of running buffer above the top of the Sphadex, allowed to enter the matrix, and the column is run with the continued addition of running buffer. The eluting liposomes, observed as a milky and turbid solution, are collected until free iron begins to elute (observed as a deep purple color) and the fractions are pooled for phosphorus quantitation.
Phosphorus content of eluted liposomes was determined by the process outlined below. 10 uL of liposome elution and a running buffer blank are added to a 5 mL glass vial containing 450 uL of a 8.9 M aqueous H2SO4 solution, the mixture is heated to 225° C. for 25 minutes in an aluminum heat block to hydrolyze POPC and cooled for 5 minutes. 200 ul of a 30% hydrogen peroxide aqueous solution is added to each vial and heated to 225° C. for 25 minutes. After cooling, the phosphorus content was determined using an Abcam Phosphate Assay kit, with buffer subtracted phosphorus levels determined against a standard curve of phosphate included in the kit. Liposomes were diluted to 1 mM phosphate in Running Buffer for use in assays after accounting for dilutions made during phospholipid digestion.
Determination of the rate at which a small molecule ligand liberates (transport) Ferric iron from liposomes is performed in clear bottom black 384-well plates on a Spectramax i3x set to read the absorbance at 562 nm in the kinetic mode every 60 seconds for 120 minutes. 1 uL of serially diluted DMSO stock solution of a small molecule ligand is added to wells in triplicate to give the final concentrations of 40, 20, 10, 5, 2.5, and 1.25 uM of the ligand at 80 μL final volume, followed by addition of 1 μL of 100 mM Ferrozine in water to give a final concentration of 1 mM ferrozine. 78 uL of liposomes diluted to 1 mM phosphorus in running buffer is added to wells as quickly as possible (using a digital repeater mulchannel pipette) with the kinetic read initiated as rapidly as possible after addition of liposomes to all wells. Typically, eight compounds at six concentrations are tested in triplicate simultaneously.
Upon completion of kinetic read, the data for individual reads is fitted to a single phase association regression with the equation Y=(Y0−YMax)^(−kX)+YMax, with Y being the 562 absorbance value and X being time in minutes. […]
In the case of `Cc1cncc(-c2cccc(=O)c(O)c2)c1` [Ex.55, 2-hydroxy-4-(5-methylpyridin-3-yl)cyclohepta-2,4,6-trien-1-one], the “Liposome Fe transport kefflux at 10 10 μM” value is 0.1-5.
For `Cc1nc(C)c(-c2cccc(=O)c(O)c2)cc1F.O=C(O)C(F)(F)F` [Ex.20, 4-(5-fluoro-2,6-dimethylpyridin-3-yl)-2-hydroxycyclohepta-2,4,6-trien-1-one], the “Liposome Fe transport kefflux at 10 10 μM” value was 0.1-5.
In the case of `Cc1nc(C)c(-c2ccc(O)c(=O)cc2)cc1F.O=C(O)C(F)(F)F` [Ex.21, 5-(5-fluoro-2,6-dimethylpyridin-3-yl)-2-hydroxycyclohepta-2,4,6-trien-1-one], the “Liposome Fe transport kefflux at 10 10 μM” value was 0.1-5.
For the compound `Cc1ccncc1-c1cccc(=O)c(O)c1` [Ex.14, 2-hydroxy-4-(4-methylpyridin-3-yl)cyclohepta-2,4,6-trien-1-one], the “Liposome Fe transport kefflux at 10 10 μM” value is on record as 0.1-5.
Regarding `Cc1cc(-c2ccc(F)cn2)ccc(O)c1=O.O=C(O)C(F)(F)F` [Ex.25, 4-(5-fluoropyridin-2-yl)-7-hydroxy-2-methylcyclohepta-2,4,6-trien-1-one], the “Liposome Fe transport kefflux at 10 10 μM” value is given as 5-7.5.
In the case of `O=c1ccc(-c2ncccn2)ccc1O` [Ex.44, 2-hydroxy-5-(pyrimidin-2-yl)cyclohepta-2,4,6-trien-1-one], the “Liposome Fe transport kefflux at 10 10 μM” value was 0.1-5.
Regarding `O=c1cccc(-c2ncccn2)cc1O` [Ex.43, 2-hydroxy-4-(pyrimidin-2-yl)cyclohepta-2,4,6-trien-1-one], the “Liposome Fe transport kefflux at 10 10 μM” value is recorded as 5-7.5.
Turning to `Nc1ccc(-c2cccc(=O)c(O)c2)cn1` [Ex.13, 4-(6-aminopyridin-3-yl)-2-hydroxycyclohepta-2,4,6-trien-1-one], the “Liposome Fe transport kefflux at 10 10 μM” value was 0.1-5.
Take `O=c1cccc(-c2ccncc2)cc1O` [Ex.7, 2-hydroxy-4-(pyridin-4-yl)cyclohepta-2,4,6-trien-1-one]: the “Liposome Fe transport kefflux at 10 10 μM” value is on record as 0.1-5.
Same read-out and setting: the same measure for `CSc1nccc(-c2ccccc(O)c2=O)n1` [Ex.40, 2-hydroxy-7-(2-(methylthio)pyrimidin-4-yl)cyclohepta-2,4,6-trien-1-one]: 5-7.5; for `Nc1ncc(-c2cccc(=O)c(O)c2)cn1.O=C(O)C(F)(F)F` [Ex.41, 4-(2-aminopyrimidin-5-yl)-2-hydroxycyclohepta-2,4,6-trien-1-one]: 0.1-5.
With `Cc1cccc(-c2cncc(F)c2)c(=O)c1O.O=C(O)C(F)(F)F` [Ex.27, 7-(5-fluoropyridin-3-yl)-2-hydroxy-3-methylcyclohepta-2,4,6-trien-1-one], the “Liposome Fe transport kefflux at 10 10 μM” value is 10-25.
Consider `Cc1ncc(F)cc1-c1ccc(O)c(=O)cc1` [Ex.60, 5-(5-fluoro-2-methylpyridin-3-yl)-2-hydroxycyclohepta-2,4,6-trien-1-one], for which the “Liposome Fe transport kefflux at 10 10 μM” value is recorded as 0.1-5.
Take `O=c1ccc(-c2ccc(F)cn2)ccc1O` [Ex.22, 5-(5-fluoropyridin-2-yl)-2-hydroxycyclohepta-2,4,6-trien-1-one]: the “Liposome Fe transport kefflux at 10 10 μM” value is listed as 0.1-5.

The assay is the same for the next values; noted with them: 10 uM ligand concentration; Table 2.
In the case of `O=c1ccccc(-c2ccc(F)cn2)c1S` [Ex.72, 3-(5-fluoropyridin-2-yl)-2-mercaptocyclohepta-2,4,6-trien-1-one], the “Liposome Fe transport Kefflux at 10 μM” value is recorded as 7.5-10.
On the same count and under the same terms, under `O=c1ccc(Oc2ccc(F)cc2)ccc1O` [Ex.65, 5-(4-fluorophenoxy)-2-hydroxycyclohepta-2,4,6-trien-1-one] stands 5-7.5; under `O=c1ccc(C(CO)Cc2ccccc2)cc(-c2cscn2)c1O` (stereo not drawn) [Ex.87, 2-hydroxy-5-(1-hydroxy-3-phenylpropan-2-yl)-3-(thiazol-4-yl)cyclohepta-2,4,6-trien-1-one], 0.1-5.
Regarding `COC(=O)c1ccc(Oc2ccccc(=O)c2O)c(F)c1` [Ex.86, methyl 3-fluoro-4-((2-hydroxy-3-oxocyclohepta-1,4,6-trien-1-yl)oxy)benzoate], the “Liposome Fe transport Kefflux at 10 μM” value is 0.1-5.
In the case of `O=c1ccccc(-c2ncccc2F)c1O` [Ex.71, 3-(3-fluoropyridin-2-yl)-2-hydroxycyclohepta-2,4,6-trien-1-one], the “Liposome Fe transport Kefflux at 10 μM” value is on record as 0.1-5.
On the same count and under the same terms, the same measure for `Cc1cccc(Oc2ccc(F)cc2F)c(O)c1=O` [Ex.77, 3-(2,4-difluorophenoxy)-2-hydroxy-7-methylcyclohepta-2,4,6-trien-1-one]: 0.1-5.
For `Cc1cccc(Oc2ccccc2)c(O)c1=O` [Ex.78, 2-hydroxy-7-methyl-3-phenoxycyclohepta-2,4,6-trien-1-one], the “Liposome Fe transport Kefflux at 10 μM” value is 0.1-5.
Same read-out and setting: under `O=c1ccc(F)cc(-c2cscn2)c1O` [Ex.83, 5-fluoro-2-hydroxy-3-(thiazol-4-yl)cyclohepta-2,4,6-trien-1-one] stands 0.1-5.
For the compound `COC(=O)Cc1ccc(Oc2ccccc(=O)c2O)c(F)c1` [Ex.84, methyl 2-(3-fluoro-4-((2-hydroxy-3-oxocyclohepta-1,4,6-trien-1-yl)oxy)phenyl)acetate], the “Liposome Fe transport Kefflux at 10 μM” value is given as 5-7.5.
On to `O=c1ccccc(-c2ccns2)c1O` [Ex.85, 2-hydroxy-3-(isothiazol-5-yl)cyclohepta-2,4,6-trien-1-one], for which the “Liposome Fe transport Kefflux at 10 μM” value is on record as 0.1-5.
With `Cc1c(F)cncc1-c1ccc(O)c(=O)c(C)c1` [Ex.63, 4-(5-fluoro-4-methylpyridin-3-yl)-7-hydroxy-2-methylcyclohepta-2,4,6-trien-1-one], the “Liposome Fe transport Kefflux at 10 μM” value was 10-25.
With `CC(C)c1cccc(-c2cncc(F)c2)c(=O)c1O` [Ex.62, 7-(5-fluoropyridin-3-yl)-2-hydroxy-3-isopropylcyclohepta-2,4,6-trien-1-one], the “Liposome Fe transport Kefflux at 10 μM” value was less than 0.1.
For the compound `O=C1C=CC(CCc2nc(-c3ccccc(=O)c3O)ccc2F)S1` (stereo not drawn) [Ex.74, 5-(2-(3-fluoro-6-(2-hydroxy-3-oxocyclohepta-1,4,6-trien-1-yl)pyridin-2-yl)ethyl)thiophen-2(5H)-one], the “Liposome Fe transport Kefflux at 10 μM” value is on record as 0.1-5.
`O=c1c(Cl)cccc(-c2cscn2)c1O` [Ex.82, 7-chloro-2-hydroxy-3-(thiazol-4-yl)cyclohepta-2,4,6-trien-1-one]: the “Liposome Fe transport Kefflux at 10 μM” value is reported as 0.1-5.
`O=c1ccccc(-c2nccs2)c1O` [Ex.80, 2-hydroxy-3-(thiazol-2-yl)cyclohepta-2,4,6-trien-1-one]: the “Liposome Fe transport Kefflux at 10 μM” value is on record as 5-7.5.
Regarding `O=c1ccccc(-c2c(F)cccc2F)c1O` [Ex.68, 3-(2,6-difluorophenyl)-2-hydroxycyclohepta-2,4,6-trien-1-one], the “Liposome Fe transport Kefflux at 10 μM” value is 7.5-10.
Take `O=c1c(F)cccc(-c2cscn2)c1O` [Ex.81, 7-fluoro-2-hydroxy-3-(thiazol-4-yl)cyclohepta-2,4,6-trien-1-one]: the “Liposome Fe transport Kefflux at 10 μM” value is 7.5-10.
On the same count and under the same terms, the same measure for `O=c1ccccc(-c2cocn2)c1O` [Ex.79, 2-hydroxy-3-(oxazol-4-yl)cyclohepta-2,4,6-trien-1-one]: 5-7.5; for `Cc1c(F)cncc1-c1ccc(O)c(=O)c(C(C)C)c1` [Ex.64, 4-(5-fluoro-4-methylpyridin-3-yl)-7-hydroxy-2-isopropylcyclohepta-2,4,6-trien-1-one]: less than 0.1.
